Laboratory results reported in US20240270768A1, “A METHOD FOR OBTAINING L-GLUFOSINATE” (UPL LIMITED, priority 2021, published 2024).

Columns and labels:
[1] = Storage stability of L-glufosinate quinine tetrahydrate salt under standard conditions, analysed by HPLC; format: physicochemical
Description: HPLC method: • A) Column—Zorbax SB-C8 (250×4.6 mm i.d., 5 micron) • B) Mobile Phase—0.1% OPA: Acetonitrile (v/v) 40:60 • C) Flow—1.0 ml/min. • D) UV-Wavelength—230 nm • E) Injection volume—5 μl • F) Column temperature 40 °C • G) Run time—10 min
L-glufosinate quinine tetrahydrate salt obtained in example 1 was stored under standard conditions (i.e. room temperature, normal pressure, air atmosphere) for 431 days.

[2] = versus other L-glufosinate quinine hydrates (dihydrate, hexahydrate, dodecahydrate)

C=C[C@H]1CN2CC[C@H]1C[C@H]2[C@H](O)c1ccnc2ccc(OC)cc12.CP(=O)(O)CC[C@H](N)C(=O)O.O.O.O.O [L-glufosinate quinine tetrahydrate salt]
Duration of desirable stability on storage ([1]; ambient conditions and air atmosphere): more than 430 days
Moisture content after storage ([1]; stored 431 days at room temperature, normal pressure, air atmosphere, initial value 12.04% (Example 1)): 12.39%
Loss on drying after storage ([1]; stored 431 days at room temperature, normal pressure, air atmosphere, initial value 12.32% (Example 1)): 12.27%
L-glufosinate acid content (by HPLC) after storage ([1]; stored 431 days at room temperature, normal pressure, air atmosphere, initial value 32.70% (Example 1)): 33.13%
Quinine content (by HPLC) after storage ([1]; stored 431 days at room temperature, normal pressure, air atmosphere, initial value 54.34% (Example 1)): 53.14%
Storage stability, thermal stability and hygroscopicity compared to other hydrates [2]: improved storage stability, thermal stability and non-hygroscopicity as compared to other hydrates
